The results in this text go back to patent publication US20250195530A1, “POLQ INHIBITORS” (ASTRAZENECA AB, priority 2022, published 2025).

Like-named read-outs stand apart in the source and are kept apart here.

In one assay the test system is DLD-1 BRCA2−/− cells. The assay is described as follows: Homologous recombination synthetic lethal inhibition of proliferation, DLD-1 BRCA2-/- (Cell Titre Glo 3D). The class given is cell-based. As to conditions: Homo sapiens. In short, it runs like this: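 Proliferation of HR-deficient DLD-1 BRCA2−/− versus isogenic wild-type DLD-1 was measured by ATP luminescence (CellTiter-Glo 3D). Compound exposure lasted 12 or 7 days, respectively, with a fresh dose on day 6. IC50 was the concentration halving maximal signal.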

The next assay deals with DLD-1 cells. As to the kind of experiment: Inhibition of proliferation, DLD-1 BRCA2 wt control (Cell Titre Glo 3D). The class given is cell-based. Conditions: for IC50: Homo sapiens. The source says: This assay identifies anti-proliferative effects of POLQ compounds in the homologous recombination deficient colorectal cell line DLD-1 BRCA2−/− over 8-9 population doublings (7 days for DLD-1 and 12 days for DLD-1 BRCA2−/−). DLD1 BRCA2 wt are used as a control to detect cell toxic effects not specific to homologous recombination deficiency.
DLD-1 BRCA2−/− and DLD-1 cells were kept in continuous culture in Assay Medium (RPMI 1640 phenol red free (Sigma R7509) containing 1% GlutaMAX (Gibco 35050) and 10% Foetal Bovine Serum (Gibco 10270-106)). On the day of the assay cells in culture of ˜80-90% confluent were used. Cell monolayers were washed with 10 mL PBS, then removed and added 2 mL TrypLE Express (Gibco 12604). The cells with TrypLE Express were incubated for 5 minutes in cell culture incubator and then the detached cells resuspend in 15 mL Assay Medium. Cells were counted using a ViCell and the cell images were monitored for clumps of cells, ideally they should be single or <3 cell clusters. The cells were diluted to 3,000 cells/mL of DLD-1 BRCA2−/− and 1,500 cells/mL of DLD-1 in Assay Medium and 100 μL added per well of transparent bottomed, black, tissue culture-treated 96-well plates (CoStar, No. 3904) Assay Ready Plates. The Assay Ready Plates contain a 10 point 10 μM to 0.51 nM dose range with three-fold dilutions in DMSO with a final volume of 100 nL. The plates were incubated at 37° C. with 5% C02 for 6 days. On day 6, 100 μL/well of Assay Medium was added to duplicate Assay Ready Plates. 90 μL of culture medium was removed from the cell plates and replenished with the Assay Media and compounds from the duplicate Assay Ready Plates using the Bravo. The plates were further incubated at 37° C. with 5% CO2. On day 7 the plates containing DLD-1 and Cell Titre Glo 3D (Promega G9683) were equilibrated to room temperature, then 60 μL of Cell Titre Glo 3D was added per well and incubated on a shaking platform for 30 min. Plates were read on the Envision measuring luminescence for 1 second per well. On day 12 the plates containing DLD-1 BRCA2−/− cells and Cell Titre Glo 3D (Promega G9683) were equilibrated to room temperature, then 60 μL Cell Titre Glo 3D added per well and incubated on a shaking platform for 30 min. Plates were read on the Envision measuring luminescence for 1 second per well. The data was exported into a suitable software package (such as Genedata) to perform curve fitting analysis. Inhibition of cell proliferation was expressed as an IC5o value and was determined by calculation of the concentration of compound that was required to give a 50% reduction of the average maximum Total Intensity signal.

Where [1] appears, read: DLD-1, first proliferation column (c5), DLD-1 BRCA2-/-, read-out: POLQ PD Prolif Lumin (converted).
Where [2] appears, read: DLD-1, second proliferation column (c6), DLD-1 BRCA2 wt control, read-out: POLQ PD Prolif Lumin (converted).
Setting [3] is: DLD-1, DLD-1 BRCA2-/- proliferation, column head only partly shown, read-out: POLQ PD Prolif Lumin (converted).
Setting [4] is: DLD-1, DLD-1 BRCA2 wt control proliferation, column head only partly shown, read-out: POLQ PD Prolif Lumin (converted).
Setting [5] is: DLD-1, DLD1 BRCA2 wt, mean, read-out: POLQ PD Prolif Lumin DLD1 mean pIC50 (converted).

Turning to `CN1CCCC1CCOc1ccc(-c2nc3c(OC4(C)CC4)ncnc3n2Cc2ccccc2)c(Cl)c1` (racemic) [Example D2, 9-benzyl-8-(2-chloro-4-(2-(1-methylpyrrolidin-2-yl)ethoxy)phenyl)-6-(1-methylcyclopropoxy)-9H-purine], the IC50 is 0.0158 µM in the assay with DLD-1 BRCA2−/− cells (DLD-1, 288 h, DLD-1 BRCA2−/− cells, 12 days, read-out: POLQ PD Prolif Lumin BRCA2 −/− mean pIC50 (converted)) and 1.26 µM in the assay on DLD-1 cells (DLD-1, 168 h, DLD-1 BRCA2 wt cells, 7 days, read-out: POLQ PD Prolif Lumin DLD1 mean pIC50 (converted)).
Turning to `Cc1ccnc(Cn2c(-c3ccc(OC4CNC(=O)C4)cc3Cl)nc3c(OC4(C)CC4)ncnc32)c1` (racemic) [Example T179, 4-(3-chloro-4-(6-(1-methylcyclopropoxy)-9-((4-methylpyridin-2-yl)methyl)-9H-purin-8-yl)phenoxy)pyrrolidin-2-one], the IC50 in the assay on DLD-1 BRCA2−/− cells (setting [1]) was 0.316 µM; with DLD-1 cells (setting [2]), greater than 10 µM.
In the case of `Cc1ccnc(Cn2c(-c3ccc(OC4CNC(=O)OC4)cc3Cl)nc3c(OC4(C)CC4)ncnc32)c1` (racemic) [Example T187, 5-(3-chloro-4-(6-(1-methylcyclopropoxy)-9-((4-methylpyridin-2-yl)methyl)-9H-purin-8-yl)phenoxy)-1,3-oxazinan-2-one], the IC50 was 1 µM with DLD-1 BRCA2−/− cells (setting [1]) and greater than 10 µM in the assay with DLD-1 cells (setting [2]).
In the case of `CC(CCOc1ccc(-c2nc3c(OC4(C)CC4)ncnc3n2Cc2c(F)c(F)c(F)c(F)c2F)c(Cl)c1)C(=O)O` (racemic) [Example T251, 4-(3-chloro-4-(6-(1-methylcyclopropoxy)-9-((perfluorophenyl)methyl)-9H-purin-8-yl)phenoxy)-2-methylbutanoic acid], the figures for the IC50 with DLD-1 BRCA2−/− cells (setting [3]) and with DLD-1 cells (setting [4]) were 2 µM and greater than 10 µM, respectively.
Take `CC(CCOc1ccc(-c2nc3c(OC4(C#N)CC4)ncnc3n2Cc2cccc(Cl)c2)c(Cl)c1)C(=O)O` (racemic) [Example T252, 4-(3-chloro-4-(9-(3-chlorobenzyl)-6-(1-cyanocyclopropoxy)-9H-purin-8-yl)phenoxy)-2-methylbutanoic acid]: the IC50 in the assay with DLD-1 BRCA2−/− cells (setting [3]) was 0.398 µM; in the assay on DLD-1 cells (setting [4]), greater than 10 µM.
As to `CC(CCOc1ccc(-c2nc3c(OC4(C)CC4)ncnc3n2Cc2cc(Br)ccc2F)c(Cl)c1)C(=O)O` (racemic) [Example T258, 4-(4-(9-(5-bromo-2-fluorobenzyl)-6-(1-methylcyclopropoxy)-9H-purin-8-yl)-3-chlorophenoxy)-2-methylbutanoic acid], the IC50 was 0.0794 µM in the assay on DLD-1 BRCA2−/− cells (setting [3]) and greater than 10 µM with DLD-1 cells (setting [4]).
With `CC(CCOc1ccc(-c2nc3c(OC4(C)CC4)ncnc3n2Cc2c(Cl)cccc2Br)c(Cl)c1)C(=O)O` (racemic) [Example T259, 4-(4-(9-(2-bromo-6-chlorobenzyl)-6-(1-methylcyclopropoxy)-9H-purin-8-yl)-3-chlorophenoxy)-2-methylbutanoic acid], the figures for the IC50 with DLD-1 BRCA2−/− cells (setting [3]) and in the assay on DLD-1 cells (setting [4]) were 3.16 µM and greater than 10 µM, respectively.
Regarding `CC(CCOc1ccc(-c2nc3c(OC4(C)CC4)ncnc3n2Cc2cc(F)cc(F)c2)c(Cl)c1)C(=O)O` (racemic) [Example T260, 4-(3-chloro-4-(9-(3,5-difluorobenzyl)-6-(1-methylcyclopropoxy)-9H-purin-8-yl)phenoxy)-2-methylbutanoic acid], the IC50 in the assay with DLD-1 BRCA2−/− cells (setting [3]) is 0.251 µM; with DLD-1 cells (setting [4]), greater than 10 µM.
In the same order, the values of `CC(CCOc1ccc(-c2nc3c(OC4(C)CC4)ncnc3n2Cc2cc(Cl)ccc2F)c(Cl)c1)C(=O)O` (racemic) [Example T268, 4-(3-chloro-4-(9-(5-chloro-2-fluorobenzyl)-6-(1-methylcyclopropoxy)-9H-purin-8-yl)phenoxy)-2-methylbutanoic acid] are 0.0631 µM and greater than 10 µM.
Consider `CC(CCOc1ccc(-c2nc3c(OC(C)(C)C(F)(F)F)ncnc3n2Cc2cccc(Cl)c2)c(Cl)c1)C(=O)O` (racemic) [Example T274, 4-(3-chloro-4-(9-(3-chlorobenzyl)-6-((1,1,1-trifluoro-2-methylpropan-2-yl)oxy)-9H-purin-8-yl)phenoxy)-2-methylbutanoic acid], for which the IC50 with DLD-1 BRCA2−/− cells (setting [3]) is 0.316 µM; with DLD-1 cells (setting [4]), greater than 10 µM.
For `CC(CCOc1ccc(-c2nc3c(OC4(C)CC4)ncnc3n2Cc2cc(Cl)cc(Cl)c2)c(Cl)c1)C(=O)O` (racemic) [Example T275, 4-(3-chloro-4-(9-(3,5-dichlorobenzyl)-6-(1-methylcyclopropoxy)-9H-purin-8-yl)phenoxy)-2-methylbutanoic acid], in that order: 0.126 µM and greater than 10 µM.
In the same order, the values of `CC(CCOc1ccc(-c2nc3c(OC4(C)CC4)ncnc3n2Cc2cc(Cl)ccc2Cl)c(Cl)c1)C(=O)O` (racemic) [Example T276, 4-(3-chloro-4-(9-(2,5-dichlorobenzyl)-6-(1-methylcyclopropoxy)-9H-purin-8-yl)phenoxy)-2-methylbutanoic acid] are 0.0631 µM and greater than 10 µM.
In the same order, the values of `CC(CCOc1ccc(-c2nc3c(OC4(C)CC4)ncnc3n2Cc2c(Cl)cccc2Cl)c(Cl)c1)C(=O)O` (racemic) [Example T277, 4-(3-chloro-4-(9-(2,6-dichlorobenzyl)-6-(1-methylcyclopropoxy)-9H-purin-8-yl)phenoxy)-2-methylbutanoic acid] are 2 µM and greater than 10 µM.
For `CC(CCOc1ccc(-c2nc3c(OC4(C)CC4)ncnc3n2Cc2ccccc2Br)c(Cl)c1)C(=O)O` (racemic) [Example T278, 4-(4-(9-(2-bromobenzyl)-6-(1-methylcyclopropoxy)-9H-purin-8-yl)-3-chlorophenoxy)-2-methylbutanoic acid], the figures for the IC50 with DLD-1 BRCA2−/− cells (setting [3]) and in the assay on DLD-1 cells (setting [4]) were 0.316 µM and greater than 10 µM, respectively.
For `CC(CCOc1ccc(-c2nc3c(OC4(C)CC4)ncnc3n2Cc2cccc(Br)c2)c(Cl)c1)C(=O)O` (racemic) [Example T279, 4-(4-(9-(3-bromobenzyl)-6-(1-methylcyclopropoxy)-9H-purin-8-yl)-3-chlorophenoxy)-2-methylbutanoic acid], in that order: 0.2 µM and greater than 10 µM.
Regarding `CC(CCOc1ccc(-c2nc3c(OC4(C)CC4)ncnc3n2Cc2cccc(I)c2)c(Cl)c1)C(=O)O` (racemic) [Example T285, 4-(3-chloro-4-(9-(3-iodobenzyl)-6-(1-methylcyclopropoxy)-9H-purin-8-yl)phenoxy)-2-methylbutanoic acid], the IC50 is 0.251 µM in the assay with DLD-1 BRCA2−/− cells (setting [3]) and greater than 10 µM in the assay with DLD-1 cells (setting [4]).
Take `COc1ccc(F)cc1Cn1c(-c2cccc(OCCCOCC(=O)O)c2Cl)nc2c(OC3(C)CC3)ncnc21` [Example U71, 2-(3-(2-chloro-3-(9-(5-fluoro-2-methoxybenzyl)-6-(1-methylcyclopropoxy)-9H-purin-8-yl)phenoxy)propoxy)acetic acid]: the IC50 in the assay on DLD-1 cells (setting [5]) is greater than 10 µM.
The same measure, in the same setting: to `COc1ccc(F)cc1Cn1c(-c2cccc(OCC[C@@H](C)C(=O)O)c2Cl)nc2c(OC3(C)CC3)ncnc21` [Example U78, (R)-4-(2-chloro-3-(9-(5-fluoro-2-methoxybenzyl)-6-(1-methylcyclopropoxy)-9H-purin-8-yl)phenoxy)-2-methylbutanoic acid] belongs greater than 10 µM.
Take `CC1(Oc2ncnc3c2nc(-c2cccc(O[C@H]4CC[C@H](C(=O)O)CC4)c2Cl)n3Cc2cc(Cl)ccc2C#N)CC1` [Example U85, (1r,4r)-4-(2-chloro-3-(9-(5-chloro-2-cyanobenzyl)-6-(1-methylcyclopropoxy)-9H-purin-8-yl)phenoxy)cyclohexane-1-carboxylic acid]: the “POLQ PD Prolif Lumin DLD1 mean pIC50” value in the assay with DLD-1 cells (DLD1 BRCA2 wt, mean) is listed as less than 5.0.
For `COc1ccc(Cl)cc1Cn1c(-c2ccc(OCCCOC(C)(C)C(=O)O)cc2Cl)nc2c(OC3(C)CC3)ncnc21` [Example U92, 2-(3-(3-chloro-4-(9-(5-chloro-2-methoxybenzyl)-6-(1-methylcyclopropoxy)-9H-purin-8-yl)phenoxy)propoxy)-2-methylpropanoic acid], in the assay with DLD-1 cells (setting [5]), the IC50 was greater than 10 µM.
